Test results as given in patent publication US20020052377A1, “Method for treating angina” (priority 2000, published 2002).
Converted amounts (≈) assume the structure as drawn. Where two headings read alike, the source gives them in different places.

Experiments:
[1] = system: regional myocardial ischemia and reperfusion; test: Rat model of regional myocardial ischemia and reperfusion (LAD-occlusion); type: in vivo, Male Wistar rats; conditions: LAD-occlusion 25 min, reperfusion 2 h, bolus 10 mg/kg + infusion 96. mg/kg/h from 30 min before occlusion, mean±SEM, n=12
Experimental: The aim of this study was to investigate whether ranolazine exerts beneficial effects in a rat model of regional myocardial ischemia and reperfusion. Methods: Male Wistar rats were subjected to no LAD-occlusion (sham) or LAD-occlusion (25 min) and reperfusion (2 h). Saline (bolus: 2.4 mL/kg+infusion: 24. mL/kg/h) or ranolazine (bolus: 10 mg/kg +infusion; 96. mg/kg/h) were infused 30 min before LAD-occlusion and throughout the experiment. At the end of the experiment area at risk (AR, % of left ventricle), infarct size (IS, % of AR), and plasma cardiac troponin T (cTnT, ng/mL) were determined. The following groups were studied: Group 1. sham saline (n=4), Group 2. saline control (n=12), Group 3. ranolazine (n=12).

[2] = Solubility of ranolazine in aqueous solutions by pH; type: physicochemical
[3] = Peak and trough ranolazine plasma concentrations, IR regimens (Example 3); type: in vivo; conditions: human, oral
Experimental: In this Example, the safety and anti-ischemic effects of high plasma ranolazine levels in a large group of angina patients was evaluated and the duration of any effects during steady-state dosing with bid and tid regimens was assessed. In this Example, patients with chronic stable angina pectoris who were responsive to conventional antianginal drugs were treated with 3 ranolazine.2HCl dosing regimens: 267 mg tid, 400 mg bid and 400 mg tid IR Formulations of Example 1. Exercise testing parameters and ranolazine free base concentrations were determined at peak and trough plasma levels.
After each 1 week period, patients returned to the exercise laboratory in the morning, at least 1 hour after a light breakfast, for an ETT. This was designated the trough ETT; the trough ETTs were performed at the same time of day for each patient. After completing the trough ETT, the patient received the next scheduled blinded medication dose from the blister pack used that week. Another ETT was performed 1 hour after the administered dose. This was designated the peak ETT. Blood samples were obtained at trough (approximately 8 hours after dosing) and at peak (1 hour after dosing). Other standard laboratory tests were monitored regularly throughout the study.

[4] = MARISA ranolazine plasma concentration; type: in vivo; conditions: human, oral; for concentration at 4 h: read-out: Ranolazine Plasma Concentration, Peak, mean (SD); for concentration at 12 h: read-out: Ranolazine Plasma Concentration, Trough, mean (SD)
Experimental: Methods: Patients withdrawn from other anti-anginal drugs with reproducible angina-limited exercise duration and ≧1 mm ST depression were randomized to Ran (500 mg bid, 1000 mg bit and 1500 mg bid) and matching placebo (Pbo) in a double-blind, four-period, Latin square crossover design. Exercise testing with a modified Bruce protocol was performed at both trough (12 hr after dosing) and peak (4 hr after dosing). Results: 49 centers in the USA, Czech Republic, Poland and Canada randomized 191 patients. 168 completed all 4 double-blind treatment periods; 7 more completed 3 of 4 periods.
Results: Ran improved exercise duration times in comparison to the placebo.

[5] = Solution pH 7.59 (unbuffered water)

USP Solubility Class ([2]; Solution pH 4.81): Freely soluble
USP Solubility Class ([2]; Solution pH 4.89): Soluble
USP Solubility Class ([2]; Solution pH 4.90): Soluble
USP Solubility Class ([2]; Solution pH 5.04): Soluble
USP Solubility Class ([2]; Solution pH 5.35): Sparingly soluble
USP Solubility Class ([2]; Solution pH 5.82): Slightly soluble
USP Solubility Class ([2]; Solution pH 6.46): Slightly soluble
USP Solubility Class ([2]; Solution pH 6.73): Very slightly soluble
USP Solubility Class ([2]; Solution pH 7.08): Very slightly soluble
USP Solubility Class [2, 5]: Very slightly soluble
solubility [2, 5]: 240 µg/mL (≈ 0.561 mM)
USP Solubility Class ([2]; Solution pH 7.73): Very slightly soluble
USP Solubility Class ([2]; Solution pH 12.66): Very slightly soluble
solubility ([2]; aqueous solution, aqueous buffer, Solution pH 4.81): 161000 µg/mL (≈ 377 mM)
solubility ([2]; aqueous solution, aqueous buffer, Solution pH 4.89): 73800 µg/mL (≈ 173 mM)
solubility ([2]; aqueous solution, aqueous buffer, Solution pH 5.04): 49400 µg/mL (≈ 116 mM)
solubility ([2]; aqueous solution, aqueous buffer, Solution pH 5.35): 16700 µg/mL (≈ 39.1 mM)
solubility ([2]; aqueous solution, aqueous buffer, Solution pH 5.82): 5480 µg/mL (≈ 12.8 mM)
solubility ([2]; aqueous solution, aqueous buffer, Solution pH 6.46): 1630 µg/mL (≈ 3.81 mM)
solubility ([2]; aqueous solution, aqueous buffer, Solution pH 6.73): 830 µg/mL (≈ 1.94 mM)
solubility ([2]; aqueous solution, aqueous buffer, Solution pH 7.08): 390 µg/mL (≈ 0.912 mM)
solubility ([2]; aqueous solution, aqueous buffer, Solution pH 7.73): 170 µg/mL (≈ 0.398 mM)
solubility ([2]; aqueous solution, aqueous buffer, Solution pH 12.66): 180 µg/mL (≈ 0.421 mM)
solubility ([2]; aqueous solution, pH 4.9, aqueous buffer, Solution pH 4.90): 76400 µg/mL (≈ 179 mM)
concentration at 1 h ([3]; female, 267 mg, Females, IR 267 mg tid, read-out: Ranolazine Plasma Concentration, Peak, mean (SD)): 1590 ng/mL
concentration at 8 h ([3]; female, 267 mg, Females, IR 267 mg tid, read-out: Ranolazine Plasma Concentration, Trough, mean (SD)): 316 ng/mL
concentration at 1 h ([3]; female, 400 mg, Females, IR 400 mg bid, read-out: Ranolazine Plasma Concentration, Peak, mean (SD)): 2170 ng/mL
concentration at 8 h ([3]; female, 400 mg, Females, IR 400 mg bid, read-out: Ranolazine Plasma Concentration, Trough, mean (SD)): 235 ng/mL
concentration at 1 h ([3]; female, 400 mg, Females, IR 400 mg tid, read-out: Ranolazine Plasma Concentration, Peak, mean (SD)): 2650 ng/mL
concentration at 8 h ([3]; female, 400 mg, Females, IR 400 mg tid, read-out: Ranolazine Plasma Concentration, Trough, mean (SD)): 505 ng/mL
concentration at 1 h ([3]; 267 mg, All Patients, IR 267 mg tid, read-out: Ranolazine Plasma Concentration, Peak, mean (SD)): 1350 ng/mL
concentration at 8 h ([3]; 267 mg, All Patients, IR 267 mg tid, read-out: Ranolazine Plasma Concentration, Trough, mean (SD)): 316 ng/mL
concentration at 1 h ([3]; 400 mg, All Patients, IR 400 mg bid, read-out: Ranolazine Plasma Concentration, Peak, mean (SD)): 1880 ng/mL
concentration at 8 h ([3]; 400 mg, All Patients, IR 400 mg bid, read-out: Ranolazine Plasma Concentration, Trough, mean (SD)): 235 ng/mL
concentration at 1 h ([3]; 400 mg, All Patients, IR 400 mg tid, read-out: Ranolazine Plasma Concentration, Peak, mean (SD)): 2130 ng/mL
concentration at 8 h ([3]; 400 mg, All Patients, IR 400 mg tid, read-out: Ranolazine Plasma Concentration, Trough, mean (SD)): 514 ng/mL
concentration at 8 h ([3]; across the 3 IR dosing regimens, read-out: Mean trough ranolazine plasma concentrations): 235 to 514 ng/mL
concentration at 1 h ([3]; across the 3 IR dosing regimens, read-out: plasma mean peak concentrations, ranolazine free base): 1350 to 2130 ng/mL
concentration at 1 h ([3]; male, 267 mg, Males, IR 267 mg tid, read-out: Ranolazine Plasma Concentration, Peak, mean (SD)): 1260 ng/mL
concentration at 8 h ([3]; male, 267 mg, Males, IR 267 mg tid, read-out: Ranolazine Plasma Concentration, Trough, mean (SD)): 316 ng/mL
concentration at 1 h ([3]; male, 400 mg, Males, IR 400 mg bid, read-out: Ranolazine Plasma Concentration, Peak, mean (SD)): 1760 ng/mL
concentration at 8 h ([3]; male, 400 mg, Males, IR 400 mg bid, read-out: Ranolazine Plasma Concentration, Trough, mean (SD)): 235 ng/mL
concentration at 1 h ([3]; male, 400 mg, Males, IR 400 mg tid, read-out: Ranolazine Plasma Concentration, Peak, mean (SD)): 1920 ng/mL
concentration at 8 h ([3]; male, 400 mg, Males, IR 400 mg tid, read-out: Ranolazine Plasma Concentration, Trough, mean (SD)): 518 ng/mL
concentration at 4 h ([4]; 500 mg BID): 1120 ng/mL
concentration at 12 h ([4]; 500 mg BID): 846 ng/mL
concentration at 4 h ([4]; 1000 mg BID): 2460 ng/mL
concentration at 12 h ([4]; 1000 mg BID): 1950 ng/mL
concentration at 4 h ([4]; 1500 mg BID): 3940 ng/mL
concentration at 12 h ([4]; 1500 mg BID): 3270 ng/mL
SMILES: COc1ccccc1OCC(O)CN1CCN(CC(=O)Nc2c(C)cccc2C)CC1 (racemic) [Ranolazine, (±)-N-(2,6-dimethylphenyl)-4-[2-hydroxy-3-(2-methoxyphenoxy)propyl]-1-piperazine-acetamide]
area at risk (AR) [1]: 48±1 % of left ventricle
infarct size (IS) [1]: 41±4 % of AR
plasma cardiac troponin T (cTnT) [1]: 12 ± 2 ng/mL
